Laboratory results: patent US7365231B2, “Compound with antitumor activity and preparation method therefor” (National Taiwan University of Science & Technology, priority 2005, dated 2008)

Key:
[1] = test system: HT-29 cells; assay: Cell cycle analysis by flow cytometry; assay type: cell-based, human
Description: […] […] HT-29 cells were mainly in G0/G1 phase (84.1-86.0%), and only a few percent of cells in S phase (7.4-8.0%) after exposure to 4 μM DPA for 48-72 h. […] The G0/G1 arrest was not induced in the HCT-15 cells treated with 1-8 μM DPA for 24-72 h. […] DPA exerted the dose specific effect for the induced G0/G1 arrest on Colo 205 cells. […] In addition, we noted that DPA-mediated accumulation of Colo205 and HT 29 cells in G1 phase (>80%) was similar to that of DPD (Anti-Cancer Drug 2004; 15:277-80). It is likely that the induced G1-arrest without concomitant apoptosis on Colo 205 and HT 29 colon cancer cells is one unique property of structure I.

[2] = test system: human colon cancer Colo 205 xenografts; assay: In vivo antiproliferation, colon cancer xenografts, DPA once a week; set-up: species or system ICR nude mice; details: for tumor size compared to vehicle control: end point
Description: We further examined whether DPA is also effective in vivo after tumor formation. For compare the in vivo antitumor activity with DPD (DPA analogue), we followed the method of our previous study (Br. J Cancer 2003; 89: 1995-2003), and the similar doses were used. Cancer cells were transplanted into ICR nude mice, and when the tumors were palpable (2-4 mm), the mice were treated either with vehicle control or DPA (20-80 mg kg^−1, i.p., once a week). […] Its tumor size (48.6 mm^2) was about 3-fold larger than the average tumor size (16.7 mm^2) of the other DPA 80 mg kg^−1-treated mice at 7 days after the initial treatment. […] (ii) DPA presented the dose-specific effect for antitumor activity on human colon cancer xenografts. The dose-specific phenomenon was also found in vitro study of DPA-induced cell cycle arrest on Colo 205 cells as shown in Table 3.

Nc1ccc(Oc2ccc(C3(c4ccc(Oc5ccc(N)c(O)c5)cc4)C4CC5CC(C4)CC3C5)cc2)cc1O [DPA, 2,2-bis(4-(4-amino-3-hydroxyphenoxy)phenyl)adamantane]
G0/G1 cell-cycle arrest and apoptosis ([1]; HT 29): G0/G1 cell-cycle arrest without concomitant apoptosis | accumulation of cells in G1 phase ([1]; HT 29): > 80% | cells in G0/G1 phase ([1]; HT-29, 4 μM DPA for 48-72 h): 84.1-86.0% | cells in S phase ([1]; HT-29, 4 μM DPA for 48-72 h): 7.4-8.0% | G0/G1(%) ([1]; HT-29, DPA 1 μM, 24 h): 56.6% | G2/M(%) ([1]; HT-29, DPA 1 μM, 24 h): 10.3% | S(%) ([1]; HT-29, DPA 1 μM, 24 h): 33.1% | G0/G1(%) ([1]; HT-29, DPA 1 μM, 48 h): 61.6% | G2/M(%) ([1]; HT-29, DPA 1 μM, 48 h): 9.4% | S(%) ([1]; HT-29, DPA 1 μM, 48 h): 29.0% | G0/G1(%) ([1]; HT-29, DPA 1 μM, 72 h): 72.6% | G2/M(%) ([1]; HT-29, DPA 1 μM, 72 h): 7.3% | S(%) ([1]; HT-29, DPA 1 μM, 72 h): 20.1% | G0/G1(%) ([1]; HT-29, DPA 2 μM, 24 h): 67.0% | G2/M(%) ([1]; HT-29, DPA 2 μM, 24 h): 10.0% | S(%) ([1]; HT-29, DPA 2 μM, 24 h): 23.1% | G0/G1(%) ([1]; HT-29, DPA 2 μM, 48 h): 77.5% | G2/M(%) ([1]; HT-29, DPA 2 μM, 48 h): 4.7% | S(%) ([1]; HT-29, DPA 2 μM, 48 h): 17.8% | G0/G1(%) ([1]; HT-29, DPA 2 μM, 72 h): 67.3% | G2/M(%) ([1]; HT-29, DPA 2 μM, 72 h): 2.9% | S(%) ([1]; HT-29, DPA 2 μM, 72 h): 29.9% | G0/G1(%) ([1]; HT-29, DPA 4 μM, 24 h): 72.1% | G2/M(%) ([1]; HT-29, DPA 4 μM, 24 h): 10.9% | S(%) ([1]; HT-29, DPA 4 μM, 24 h): 17.1% | G0/G1(%) ([1]; HT-29, DPA 4 μM, 48 h): 84.1% | G2/M(%) ([1]; HT-29, DPA 4 μM, 48 h): 8.5% | S(%) ([1]; HT-29, DPA 4 μM, 48 h): 7.4% | G0/G1(%) ([1]; HT-29, DPA 4 μM, 72 h): 86.0% | G2/M(%) ([1]; HT-29, DPA 4 μM, 72 h): 6.1% | S(%) ([1]; HT-29, DPA 4 μM, 72 h): 8.0% | G0/G1(%) ([1]; HT-29, DPA 8 μM, 24 h): 77.0% | G2/M(%) ([1]; HT-29, DPA 8 μM, 24 h): 9.6% | S(%) ([1]; HT-29, DPA 8 μM, 24 h): 13.3% | G0/G1(%) ([1]; HT-29, DPA 8 μM, 48 h): 79.5% | G2/M(%) ([1]; HT-29, DPA 8 μM, 48 h): 10.0% | S(%) ([1]; HT-29, DPA 8 μM, 48 h): 10.6% | G0/G1(%) ([1]; HT-29, DPA 8 μM, 72 h): 86.3% | G2/M(%) ([1]; HT-29, DPA 8 μM, 72 h): 6.2% | S(%) ([1]; HT-29, DPA 8 μM, 72 h): 7.5% | concentration of maximum in vivo antitumor effect ([2]; Colo 205 xenografts, i.p.): about 40 mg kg^−1 week^−1 | tumor size compared to vehicle control ([2]; DPA 20 mg kg^−1 i.p. once a week): not significantly decreased | tumor size compared to control groups ([2]; DPA 40 mg kg^−1 i.p. once a week): significantly (P<0.05) decreased | average tumor size ([2]; DPA 40 mg kg^−1 i.p. once a week, end of study (control 81.5)): 29.6 mm^2 | tumor size of one mouse with abnormally large tumor ([2]; DPA 80 mg kg^−1, 7 days after initial treatment): 48.6 mm^2 | average tumor size of the other mice ([2]; DPA 80 mg kg^−1, 7 days after initial treatment, without the outlier mouse): 16.7 mm^2 | tumor size compared to vehicle control ([2]; DPA 80 mg kg^−1 i.p. once a week): not significantly decreased
